Test results reported in patent US8779001B2, “Stat3 inhibitors” (The United States of America National Institute of Health …, priority 2008, dated 2014).

Experiments:
Stat1 = target: T1, Stat1 (Homo sapiens, UniProt P42224); experiment: Immunoblot assay of IFN-γ-stimulated Stat1 phosphorylation in HepG2 cells; assay type: cell-based; conditions: HepG2, compound 300 μM, 1 hour, IFN-γ 30 ng/ml 30 min
T1 construct: endogenous in cells; host or cells: HepG2
T1 sequence (P42224 1-750): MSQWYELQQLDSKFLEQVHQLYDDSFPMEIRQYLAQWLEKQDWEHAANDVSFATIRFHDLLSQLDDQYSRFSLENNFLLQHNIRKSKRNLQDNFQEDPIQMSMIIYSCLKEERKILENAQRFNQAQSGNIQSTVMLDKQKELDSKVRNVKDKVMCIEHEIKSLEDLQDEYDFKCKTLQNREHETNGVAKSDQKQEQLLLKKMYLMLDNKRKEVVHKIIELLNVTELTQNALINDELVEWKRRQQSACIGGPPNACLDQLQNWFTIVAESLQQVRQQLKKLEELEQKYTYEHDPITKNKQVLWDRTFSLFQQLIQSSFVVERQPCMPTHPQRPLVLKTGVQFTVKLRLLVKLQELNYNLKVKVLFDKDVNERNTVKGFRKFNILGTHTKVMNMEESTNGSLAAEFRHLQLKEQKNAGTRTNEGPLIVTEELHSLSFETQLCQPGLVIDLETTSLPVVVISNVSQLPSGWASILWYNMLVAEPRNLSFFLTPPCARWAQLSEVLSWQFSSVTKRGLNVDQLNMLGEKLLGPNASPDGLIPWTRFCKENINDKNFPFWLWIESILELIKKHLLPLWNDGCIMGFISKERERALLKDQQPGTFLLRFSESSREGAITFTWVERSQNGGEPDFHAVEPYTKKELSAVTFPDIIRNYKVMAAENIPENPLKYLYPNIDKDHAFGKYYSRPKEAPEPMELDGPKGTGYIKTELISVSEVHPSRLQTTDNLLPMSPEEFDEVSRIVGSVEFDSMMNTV
Description: HepG2 cells were pretreated with DMSO alone or DMSO containing each of the compounds at a concentration of 300 μM for 60 min. Cells were then stimulated with IFN-γ (30 ng/ml) for 30 min. Protein extracts of cells were separated by SDS-PAGE and immunoblotted serially with antibodies to pStat1, total Stat1 and β-actin. Blots were stripped between each immunoblotting. The results shown are representative of 2 or more experiments.
Immunoblot assay. The human hepatocellular carcinoma cell line (HepG2) was grown in 6-well plates under standard conditions. Cells were pretreated with compounds (0, 1, 3, 10, 30, 100 and 300 uM) for 1 hour then stimulated under optimal conditions with either interferon gamma (IFN-γ; 30 ng/ml for 30 min) to activate Stat1 or interleukin-6 (IL-6; 30 ng/ml for 30 min) to activate Stat3 (30-31). Cultures were then harvested and proteins extracted using high-salt buffer, as described (Shao et al., 2006). Briefly, extracts were mixed with 2× sodium dodecyl sulfate (SDS) sample buffer (125 mmol/L Tris-HCL pH 6.8; 4% SDS; 20% glycerol; 10% 2-mercaptoethanol) at a 1:1 ratio and heated for 5 minutes at 100° C. Proteins (20 μg) were separated by 7.5% SDS-PAGE and transferred to polyvinylidene fluoride (PVDF) membrane (Millipore, Waltham, Mass.) and immunoblotted. Prestained molecular weight markers (Biorad, Hercules, Calif.) were included in each gel. Membranes were probed serially with antibody against Stat1 pY^701 or Stat3 pY^705 followed by antibody against Stat1 or Stat3 (Transduction labs, Lexington, Ky.) then antibody against β-actin (Abeam, Cambridge, Mass.). Membranes were stripped between antibody probing using Restore™ Western Blot Stripping Buffer (Thermo Fisher Scientific Inc., Waltham, Mass.) per the manufacturer's instructions. Horseradish peroxidase-conjugated goat-anti-mouse IgG was used as the secondary antibody (Invitrogen Carlsbad, Calif.) and the membranes were developed with enhanced chemiluminescence (ECL) detection system (Amersham Life Sciences Inc.; Arlington Heights, Ill.).
While Stat3 contributes to oncogenesis, in part, through inhibition of apoptosis, Stat1 is anti-oncogenic; it mediates the apoptotic effects of interferons and contributes to tumor surveillance (Kaplan et al., 1998; Ramana et al., 2000). Consequently, compounds that target Stat3 while sparing Stat1, leaving its anti-oncogenic functions unopposed, may result in a synergistic anti-tumor effect. […] Thus, five of the six exemplary compounds identified were selective and inhibited ligand-stimulated phosphorylation of Stat3 but not Stat1.
EXP IIC. Ligand-mediated pStat3 and pStat1 inhibition assays. […] Briefly, human hepatocellular carcinoma cells (HepG2) are grown in 6-well plates and pretreated with compounds (0, 0.1, 0.3, 1, 3, 10, 30, 100 μM) for 1 hour then stimulated under optimal conditions with either interleukin-6 (IL-6; 30 ng/ml for 30 min) to activate Stat3 or interferon gamma (IFN-γ, 30 ng/ml for 30 min) to activate Stat1. Cells are harvested and proteins extracted using high-salt buffer, mixed with 2× sodium dodecyl sulfate (SDS) sample buffer (125 mmol/L Tris-HCL pH 6.8; 4% SDS; 20% glycerol; 10% 2-mercaptoethanol) at a 1:1 ratio then heated for 5 minutes at 100° C. Proteins (20 μg) are separated by 7.5% SDS-PAGE and transferred to polyvinylidene fluoride (PVDF) membrane (Millipore, Waltham, Mass.) and immunoblotted. Membranes are probed serially with antibody against Stat1 pY701 or Stat3 pY705 followed by antibody against Stat1 or Stat3 (Transduction labs, Lexington, Ky.) then antibody against β-actin (Abcam, Cambridge, Mass.). Membranes are stripped between antibody probings using Restore™ Western Blot Stripping Buffer (Thermo Fisher Scientific Inc., Waltham, Mass.) per the manufacturer's instructions. […]

Stat3:hSIE complexes = target: T2, Stat3:hSIE complexes (Homo sapiens, UniProt P40763); experiment: Electrophoretic mobility shift assay (EMSA) of Stat3 DNA binding; assay type: biochemical; conditions: extracts of IL-6-stimulated HepG2 cells, compound 300 μM, 60 minutes at 37° C
T2 construct: endogenous in cells; host or cells: HepG2
T2 sequence (P40763 2-770 limits assumed, one chain of several): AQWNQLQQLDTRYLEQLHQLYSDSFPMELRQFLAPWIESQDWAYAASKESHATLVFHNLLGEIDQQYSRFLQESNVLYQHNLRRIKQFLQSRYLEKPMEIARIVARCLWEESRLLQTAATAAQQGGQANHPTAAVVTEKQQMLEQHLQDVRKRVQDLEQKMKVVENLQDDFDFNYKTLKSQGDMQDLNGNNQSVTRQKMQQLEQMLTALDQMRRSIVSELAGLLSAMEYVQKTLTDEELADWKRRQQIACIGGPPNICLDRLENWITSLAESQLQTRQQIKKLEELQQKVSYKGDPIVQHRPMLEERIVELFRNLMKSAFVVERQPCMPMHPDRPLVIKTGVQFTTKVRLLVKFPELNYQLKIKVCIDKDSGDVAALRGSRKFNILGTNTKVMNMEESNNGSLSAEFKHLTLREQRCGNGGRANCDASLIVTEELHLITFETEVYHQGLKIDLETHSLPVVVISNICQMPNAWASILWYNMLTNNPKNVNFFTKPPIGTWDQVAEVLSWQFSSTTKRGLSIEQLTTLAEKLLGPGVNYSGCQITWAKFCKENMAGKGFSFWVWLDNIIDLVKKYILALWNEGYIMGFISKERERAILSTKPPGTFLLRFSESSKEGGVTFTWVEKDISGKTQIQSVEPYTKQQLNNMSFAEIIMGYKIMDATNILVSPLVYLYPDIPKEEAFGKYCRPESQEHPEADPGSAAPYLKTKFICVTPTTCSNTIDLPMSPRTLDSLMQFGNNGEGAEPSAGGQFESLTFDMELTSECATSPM
Description: Electrophoretic mobility shift assays were performed using whole-cell extracts prepared from HepG2 cells without and with stimulation with IL-6 (30 ng/ml) for 30 min. Protein (20 μg) was incubated with radiolabeled duplex oligonucleotide (hSIE) and DMSO without or with the indicated compounds (300 uM) for 60 minutes at 37° C. then separated by PAGE. The gel was dried and autoradiographed; the portion of the gel corresponding to the Stat3-bound hSIE band is shown. Data shown are representative of 2 studies.
Electrophoretic Mobility Shift Assay (EMSA): EMSA was performed using the hSIE radiolabeled duplex oligonucleotide as a probe as described (Tweardy et al., 1995). Briefly, high salt extracts were prepared from HepG2 cells incubated without or with IL-6 (30 ng/ml) for 30 minutes. Protein concentration was determined by Bradford Assay and 20 ug of extract was incubated with compound (300 uM) for 60 minutes at 37° C. […] Gels were dried and autoradiographed.
Once in the nucleus, Stat3 dimers bind to specific DNA elements to activate and, in some instances, repress gene transcription. […] Compounds that bind to the phosphopeptide-binding site of Stat3 might be expected to do the same. […]

breast cancer cell lines = experiment: Breast cancer cell line apoptosis assay, statements over several cell lines; assay type: cell-based, human; conditions: five breast cancer cell lines
Description: MDA-MB-468 (panel A), MDA-MB-231 (panel B), MDA-MB-435 (panel C), MCF7 (panel D) and MDA-MB-453 (panel E) were seeded in 12-well plates, grown overnight then treated with the indicated compound for 24 hr. Cells were centrifuged and the supernatants assayed for nucleosome levels by ELISA.
Human breast carcinoma cell lines MDA-MB-468, MDA-MB-231, MBA-MD-435 and MCF7 were kindly provided by Dr. Powel H. Brown (Breast Cancer Center, Baylor College of Medicine). Breast cancer cell line, MDA-MB-453 was kindly provided by Dr. Shou Jiang (Breast Cancer Center, Baylor College of Medicine). […] Cells were seeded at 2,500 cells/cm^2 into 12-well plates. […] At 24 hours, treatment was terminated by removing the medium from each well. […] The percent maximum nucleosome level was calculated by dividing the nucleosome level by the maximum nucleosome level achieved in the assay and multiplying by 100.

[1] = test system: triple negative human breast cancer xenograft; experiment: Two-day pilot triple-negative human breast cancer xenograft experiment, MSFE measured; assay type: in vivo, SCID Beige mice; conditions: 250 mcg, two days of treatment, P<0.05
Excerpt: The mice were sacrificed after two days and MSFE measured.
A tumor line derived from a “triple negative” (ER-negative, PgR-negative, and HER-2 negative) human breast cancer biopsy specimen was transplanted into immunocompromised SCID Beige mice. The animals (n=3) received two doses of vehicle control, 2 different doses of Cpd 188 (125 or 250 mcg), a G-quartet oligodeoxynucleotide (GQ-ODN, T40214; GQ-I) previously determined to target Stat3 (Jing et al., 2004) and a control non-specific ODN (GQ-II) each at two doses (125 or 250 mcg). The animals were sacrificed after only two days of treatment, and MSFE determined.

[2] = test system: breast cancer cells with constitutively activated Stat3; conditions: Schust et al., 2006; cited from earlier work
Stat3 = Stat3 (Homo sapiens, UniProt P40763); conditions: fluorescence polarization, Coleman et al., 2005; read-out: IC50 inhibition of Stat3 binding to pY-peptide; cited from earlier work
Chain of Stat3 (P40763 whole entry): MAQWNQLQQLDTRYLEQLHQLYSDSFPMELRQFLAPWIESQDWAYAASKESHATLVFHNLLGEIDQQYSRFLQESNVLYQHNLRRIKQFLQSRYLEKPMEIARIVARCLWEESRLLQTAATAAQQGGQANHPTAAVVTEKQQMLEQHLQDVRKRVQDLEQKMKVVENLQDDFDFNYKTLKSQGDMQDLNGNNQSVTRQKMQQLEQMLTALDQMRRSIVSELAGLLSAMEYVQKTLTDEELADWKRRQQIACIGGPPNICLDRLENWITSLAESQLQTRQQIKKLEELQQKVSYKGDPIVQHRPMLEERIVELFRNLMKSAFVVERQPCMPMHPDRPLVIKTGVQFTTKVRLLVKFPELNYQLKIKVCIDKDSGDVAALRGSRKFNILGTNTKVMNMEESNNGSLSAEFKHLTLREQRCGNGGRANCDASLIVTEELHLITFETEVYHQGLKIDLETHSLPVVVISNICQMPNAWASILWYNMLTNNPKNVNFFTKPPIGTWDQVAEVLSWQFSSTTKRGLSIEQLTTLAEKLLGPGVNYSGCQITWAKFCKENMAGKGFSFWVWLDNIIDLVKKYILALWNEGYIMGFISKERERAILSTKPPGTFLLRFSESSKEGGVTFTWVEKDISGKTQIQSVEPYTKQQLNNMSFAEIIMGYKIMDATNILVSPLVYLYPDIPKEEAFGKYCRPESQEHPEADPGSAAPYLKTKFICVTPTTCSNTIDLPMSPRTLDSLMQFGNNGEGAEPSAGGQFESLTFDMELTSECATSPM

O=C(O)c1ccc(C=CC(=O)c2ccc3c(c2)OCCO3)cc1 [Cpd3, 4-[3-(2,3-dihydro-1,4-benzodioxin-6-yl)-3-oxo-1-propen-1-yl]benzoic acid]
effect on IFN-γ-stimulated Stat1 phosphorylation (Stat1): did not | effect on Stat3:hSIE band intensity (EMSA) (Stat3:hSIE complexes): reduced the amount of hSIE shifted by half or greater

CCOc1cc(C=C2C(=O)c3ccccc3C2=O)cc(Cl)c1OCc1cccc(C(=O)O)c1 [Cpd3-2, 3-({2-chloro-4-[(1,3-dioxo-1,3-dihydro-2H-inden-2-ylidene)methyl]-6-ethoxyphenoxy}methyl)benzoic acid]
effect on IFN-γ-stimulated Stat1 phosphorylation (Stat1): did not | induction of apoptosis of any of the breast cancer cell lines tested (breast cancer cell lines): neither Cpd3-2 nor Cpd3-7 induced apoptosis

COC(=O)Cc1c(C)c2ccc(OCc3ccc(C(=O)OC)cc3)c(C)c2oc1=O [Cpd3-7, methyl 4-({[3-(2-methyoxy-2-oxoethyl)-4,8-dimethyl-2-oxo-2H-chromen-7-yl]oxy}methyl)benzoate]
effect on IFN-γ-stimulated Stat1 phosphorylation (Stat1): did not | effect on Stat3:hSIE band intensity (EMSA) (Stat3:hSIE complexes): reduced the amount of hSIE shifted by half or greater | induction of apoptosis of any of the breast cancer cell lines tested (breast cancer cell lines): neither Cpd3-2 nor Cpd3-7 induced apoptosis

CCN1C(=O)C(=Cc2ccc(-c3ccc(C(=O)O)cc3)o2)SC1=S [Cpd30, 4{5-[(3-ethyl-4-oxo-2-thioxo-1,3-thiazolidin-5-ylidene)methyl]-2-furyl}benzoic acid]
effect on IFN-γ-stimulated Stat1 phosphorylation (Stat1): did not

CCN1C(=O)C(=Cc2ccc(-c3cc(C(=O)O)ccc3Cl)o2)C(=O)N(CC)C1=S [Cpd30-12, 4-chloro-3-{5-[(1,3-diethyl-4,6-dioxo-2-thioxotetrahydro-5(2H)-pyrimidinylidene)methyl]-2-furyl}benzoic acid]
effect on IFN-γ-stimulated Stat1 phosphorylation (Stat1): blocked Stat1 phosphorylation

O=C(O)CSc1cc(NS(=O)(=O)c2ccc(C(=O)O)cc2)c2ccccc2c1O [Cpd188, 4-[({3-[(carboxymethyl)thio]-4-hydroxy-1-naphthyl}amino)sulfonyl]benzoic acid]
effect on IFN-γ-stimulated Stat1 phosphorylation (Stat1): did not | reduction in MSFE compared to control [1]: significant reduction in MSFE

O=[N+]([O-])c1ccc2c(c1)S(=O)(=O)C=C2 [Stattic]
concentration range inducing apoptosis / Stat3 inhibitory effects [2]: 5 to 20 µM

hydrocinnamoyl-Tyr(PO3H2)-Leu-cis-3,4-methanoPro-Gln-NHB
IC50 (Stat3): 125 nM
